From patent US7244767B2 (priority 1998, dated 2007)
Values joined by “and” are separate entries in the source; they are usually repeats but may differ in a detail not shown here. Equal entries are not always repeated. Where two headings read alike, the source gives them in different places.

Assays:
cannabinoid receptor CB1 = target: T1, cannabinoid receptor CB1 (Mus musculus, UniProt P47746); test: Binding to cannabinoid receptor CB1, displacement of [3H]SR141716A on N18TG2 cell membranes; conditions: 300 pM [3H]SR141716A, 90 min at 30° C., read-out: Ki, CB1 receptor, N18TG2 + cells, [3H]SR141716A ligand
T1 construct: endogenous in cells; host or cells: N18TG2 mouse neuroblastoma cells
Procedure: Mouse neuroblastoma cells N18TG2 which selectively express the cannabinoid receptor CB1 and rat leukaemia basophil cells RBL-2H3+ which selectively express the cannabinoid receptor CB2 were used. […] The binding tests were carried out with membranes of the said cells resuspended in 50 mM pH 7.0 Tris buffer; 2.5 mM mgCl2; 0.8 mM EDTA; 0.05% bovine serum albumin (BSA); 0.01% ethanol and in the presence of 100 μM phenylmethylsulphonyl fluoride (PMSF; sigma) using 300 pM of [^3H]SR141716A and [^3H]WIN55,212-2, respectively, as ligand.
(§1) The membranes were incubated for 90 min at 30° C., filtered on glass microfibre filters (GFC-Whatman) and the radioactivity was measured by liquid scintillation. The specific binding was calculated using either 10 μM SR141716A or 10 μM HU-210 (obtained from Prof. R. Mechoulam, Hebrew University Jerusalem). The Ki values were calculated using the Chang-Prusoff equation and expressed as concentration μM.

[1] = test system: carrageenan-mediated oedema; test: Carrageenan-mediated oedema, paw volume; assay type: in vivo; conditions: 5 mg/kg, oral, carrageenan = 100
Procedure: The method described previously [materials and methods S. Mazzari et al. (1996) Europ. J. Pharmacol., 300: 227-236] were used for the purpose of evaluating the effects of N-AVAM molecules on the hyperreactivity of sensitive nerve cells.
The test compounds were administered orally suspended in physiological saline densified with CMC. The results are expressed as a percentage of variation in the volume of the paw relative to carrageenan.

receptor CB1 = target: T2, receptor CB1 (Mus musculus, UniProt P47746); test: Effect on stimulation of cyclic AMP by forskolin in N18TG2 cells; assay type: cell-based; conditions: 1 μM forskolin, 10 min at 37° C.; read-out: IC50, c-AMP stimulated by forskolin, N18TG2 cells
T2 construct: endogenous in cells; host or cells: N18TG2 mouse neuroblastoma cells
Procedure: The tests were carried out with the aim of checking whether or not the binding of the N-AVAM molecules to the receptor CB1 had any functional significance. […] After incubation, the cells were extracted and the c-AMP levels were evaluated using a suitable kit from Amersham according to the manufacturer's procedure. The data are expressed as IC50, in μM.

T-47D cells = test: Proliferation of human breast carcinoma cells, [3H]-thymidine incorporation, T-47D; assay type: cell-based
Procedure: (§2) Human breast carcinoma cells MCF-7, EFM-19 and T-47D were used. The cells were cultured and the tests were carried out as described previously [materials and methods L. De Petrocellis et al. (1998) Proc. Natl. Acad. Sci. U.S.A., 95: 8375-8380]. The activity with respect to the proliferation of the tumour cells was evaluated on the basis of the incorporation of [^3H]-thimidine. The results are expressed as IC50 in μM.

MCF-7 cells = test: Proliferation of human breast carcinoma cells, [3H]-thymidine incorporation, MCF-7; assay type: cell-based; conditions: MCF-7, [3H]-thymidine incorporation
Procedure: as §2

cannabinoid receptor CB2 = target: T3, cannabinoid receptor CB2 (Rattus norvegicus, UniProt Q9QZN9); test: Binding to cannabinoid receptor CB2, displacement of [3H]WIN55,212-2 on RBL-2H3 cell membranes; conditions: read-out: Ki, CB2 receptor, RBL-2H3 + cells, [3H]WIN55,212-2 ligand
T3 construct: endogenous in cells; host or cells: RBL-2H3 rat basophilic leukaemia cells
T3 sequence (Q9QZN9 1-360): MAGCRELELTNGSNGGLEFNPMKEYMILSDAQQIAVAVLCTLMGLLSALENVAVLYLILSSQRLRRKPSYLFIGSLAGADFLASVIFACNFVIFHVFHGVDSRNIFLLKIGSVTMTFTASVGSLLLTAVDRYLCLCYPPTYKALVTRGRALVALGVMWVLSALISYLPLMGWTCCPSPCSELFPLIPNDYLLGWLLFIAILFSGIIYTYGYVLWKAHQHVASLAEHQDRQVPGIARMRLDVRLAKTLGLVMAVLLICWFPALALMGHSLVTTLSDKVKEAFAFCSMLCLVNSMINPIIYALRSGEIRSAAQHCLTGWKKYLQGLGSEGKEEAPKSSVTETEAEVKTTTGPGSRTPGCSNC
Procedure: Mouse neuroblastoma cells N18TG2 which selectively express the cannabinoid receptor CB1 and rat leukaemia basophil cells RBL-2H3+ which selectively express the cannabinoid receptor CB2 were used. The cells were cultured as described previously [L. Faci et al. (1995) Proc. Natl. Acad. Sci. U.S.A., 92: 3376-3380; T. Bisogno et al. (1997) J. Biol. Chem., 272: 3315-3323]. [^3H]SR141716A (55 Ci/mmol) was supplied by Amersham; [^3H]WIN55, 212-2(43 Ci/mmol) was supplied by NEN. The binding tests were carried out with membranes of the said cells resuspended in 50 mM pH 7.0 Tris buffer; 2.5 mM mgCl2; 0.8 mM EDTA; 0.05% bovine serum albumin (BSA); 0.01% ethanol and in the presence of 100 μM phenylmethylsulphonyl fluoride (PMSF; sigma) using 300 pM of [^3H]SR141716A and [^3H]WIN55,212-2, respectively, as ligand.
as §1

[2] = Solubility (physicochemical properties of the product)
EFM-19 cells [3] = test: Proliferation of human breast carcinoma cells, [3H]-thymidine incorporation, EFM-19; assay type: cell-based; conditions: EFM-19, [3H]-thymidine incorporation
Procedure: as §2

DU-145 cells = test: Proliferation of human prostate carcinoma cells DU145 with prolactin, cell count; assay type: cell-based
Procedure: Human prostate carcinoma cells DU145 were used. The cells were cultured as described previously [materials and methods T. Janssen et al. (1996) Cancer, 77: 144-149].
The cells were then incubated in 96-well plates with Eagle's Minimal Essential Medium (MEM) supplemented with 10% foetal calf serum free of endogenous steroids. After 24 hours, the medium was removed and replaced with a medium containing prolactin (PRL) (1 mIU/ml of medium). The layer of cells was trypsinized and the cells were counted by haemocytometry.
The results are expressed as IC50 in μM.

EFM-19 cells [4] = test: Synergistic effect of PEA on antiproliferative activity in EFM-19 cells; assay type: cell-based, human; conditions: for Proliferative activity %: control = 100
Procedure: as §2
Human breast carcinoma cells EFM-19 were used. The test was carried out as indicated in Example C above.

[5] = test system: carrageenan-mediated locomotor hyperalgesia; assay type: in vivo
[6] = membranes, 300 pM [3H]WIN55,212-2, 90 min at 30° C.
[7] = Homo sapiens, test compound alone 1.0 μM, control = 100, read-out: Proliferative activity %

T1 sequence (P47746 whole entry): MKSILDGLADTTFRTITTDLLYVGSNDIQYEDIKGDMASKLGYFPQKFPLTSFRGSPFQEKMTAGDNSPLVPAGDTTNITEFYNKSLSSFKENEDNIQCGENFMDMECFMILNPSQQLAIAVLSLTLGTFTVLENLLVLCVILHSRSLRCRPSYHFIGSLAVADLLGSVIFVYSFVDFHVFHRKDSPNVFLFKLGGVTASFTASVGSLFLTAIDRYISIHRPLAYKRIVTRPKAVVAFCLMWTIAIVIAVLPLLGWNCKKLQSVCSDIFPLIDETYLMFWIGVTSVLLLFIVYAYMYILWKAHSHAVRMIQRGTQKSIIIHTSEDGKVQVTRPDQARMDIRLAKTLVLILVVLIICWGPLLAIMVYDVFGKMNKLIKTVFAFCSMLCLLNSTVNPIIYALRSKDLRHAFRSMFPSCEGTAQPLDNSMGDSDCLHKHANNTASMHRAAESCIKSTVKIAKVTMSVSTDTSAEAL
T2 sequence (P47746 whole entry): as above

Row | SMILES | Ki (cannabinoid receptor CB1) [µM] | IC50 (receptor CB1) [µM] | IC50 (T-47D cells) [µM] | IC50 (MCF-7 cells) [µM] | Ki (cannabinoid receptor CB2; [6]) [µM] | Solubility in organic solvents, DMSO ([2]; in DMSO) [mg/mL] | Solubility in organic solvents, ethanol [2] [mg/mL] | Solubility in water [2] | IC50 (EFM-19 cells [3]) [µM] | also measured
1 | COc1cc(CNC(=O)CCCC/C=C/C(C)C)ccc1O [Capsaicin, reference compound] | > 10 | – | – | – | – | – | – | – | – | –
2 | CCCCCCCC/C=C\CCCCCCCC(=O)NCc1ccc(O)c(OC)c1 [Example 1, N-(4-hydroxy-3-methoxybenzyl)oleylamide] | 1.64 ± 0.36 | 1.6 | 1.6 | 1.6 | > 15 | > 10 | > 10 | sparingly soluble | 0.7 | Percentage of variation in the volume of the paw relative to carrageenan ([1]; 60 min): 75%; Percentage of variation in the volume of the paw relative to carrageenan ([1]; 120 min): 70%; Percentage of variation in the volume of the paw relative to carrageenan ([1]; 180 min): 65%; IC50 (DU-145 cells; prolactin 1 mIU/ml): 0.2 to 0.3 µM; Proliferative activity % (EFM-19 cells [4]; test compound alone 1.0 μM): 60%; Percentage of variation in the administered weight (hyperalgesia) ([5]; 5 mg/kg, oral, 0 min): 100%; Percentage of variation in the administered weight (hyperalgesia) ([5]; 5 mg/kg, oral, 60 min): 80%; Percentage of variation in the administered weight (hyperalgesia) ([5]; 5 mg/kg, oral, 120 min): 72%; Percentage of variation in the administered weight (hyperalgesia) ([5]; 5 mg/kg, oral, 180 min): 65%; Percentage of variation in the administered weight (hyperalgesia) ([5]; 5 mg/kg, oral, 240 min): 58%; Percentage of variation in the administered weight (hyperalgesia) ([5]; 5 mg/kg, oral, 300 min): 64%
3 | CCCCC/C=C\C/C=C\C/C=C\C/C=C\CCCC(=O)NCCO [Anandamide, reference compound] | – | – | – | – | – | – | – | – | – | IC50 (T-47D cells; Homo sapiens, T47D): 1.9 µM; IC50 (MCF-7 cells; Homo sapiens, MCF7): 0.5 µM; IC50 (EFM-19 cells [3]; Homo sapiens): 1.5 µM; IC50 (DU-145 cells; Homo sapiens, DU-145, prolactin 1 mIU/ml): 0.5 µM; activity at 1 µM (EFM-19 cells [4]; [7]): 84%
4 | CCCCCCCCCCCCCCCC(=O)NCc1ccc(O)c(OC)c1 [Example 2, N-(4-hydroxy-3-methoxybenzyl)-palmitoylamide] | 1.75 ± 0.35 | 1.8 | 0.8 | 2.1 | > 15 | > 10 | > 10 | sparingly soluble | 1 | –
5 | CCCCC/C=C\C/C=C\C/C=C\C/C=C\CCCC(=O)NCc1ccc(O)c(OC)c1 [Example 3, N-(4-hydroxy-3-methoxybenzyl)-arachidonoylamide] | 1.5 ± 0.29 | 1.3 | 0.3 | 0.4 | > 15 | > 10 | > 10 | sparingly soluble | 0.5 | Proliferative activity % (EFM-19 cells [4]; test compound alone 0.5 μM): 70%; Proliferative activity % (EFM-19 cells [4]; test compound alone 1.0 μM): 43%
6 | COc1cc(CNC(=O)CCCCCCCC(=O)NCc2ccc(O)c(OC)c2)ccc1O [Example 4, N,N′-bis(4-hydroxy-3-methoxybenzyl)-nonanediamide] | 1.2 ± 0.28 | – | – | – | – | – | – | sparingly soluble | – | solubility ([2]; organic solvent or mixture, in DMSO, read-out: Solubility in organic solvents, DMSO): > 10 mg/mL
7 | CCCCCCCCCCCCCCCC(=O)NCCO [N-palmitoylethanolamine, reference compound] | – | – | – | – | – | – | – | – | – | Ki (cannabinoid receptor CB2): 0.001 ± 0.0006 µM; activity at 1 µM (EFM-19 cells [4]; [7]): 100%; activity at 2.5 µM (EFM-19 cells [4]; Homo sapiens, test compound alone 2.5 μM, control = 100, read-out: Proliferative activity %): 100%; activity at 5 µM (EFM-19 cells [4]; Homo sapiens, test compound alone 5.0 μM, control = 100, read-out: Proliferative activity %): 100%; activity at 10 µM (EFM-19 cells [4]; Homo sapiens, test compound alone 10 μM, control = 100, read-out: Proliferative activity %): 100%; Percentage of variation in the administered weight (hyperalgesia) ([5]; in vivo): 100% and 82% and 80% and 76% and 64% and 66%
